Source: PMC11073449 (Science (New York, N.Y.), 2023)
Numbering of substitutions follows the chain as printed.

Columns and labels:
Aster-A [1] = target: T1, Aster-A (Mus musculus, UniProt Q8VEF1, L400A); test: CD thermal stabilization; format: binding
T1 sequence (Q8VEF1 334-562 L400A): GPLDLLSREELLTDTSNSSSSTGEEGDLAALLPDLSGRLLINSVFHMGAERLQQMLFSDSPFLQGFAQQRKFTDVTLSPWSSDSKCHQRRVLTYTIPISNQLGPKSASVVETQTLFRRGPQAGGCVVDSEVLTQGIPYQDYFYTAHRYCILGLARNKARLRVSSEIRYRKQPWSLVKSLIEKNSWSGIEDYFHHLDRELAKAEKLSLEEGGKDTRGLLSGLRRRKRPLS

Aster-A [2] = target: T2, Aster-A (Mus musculus, UniProt Q8VEF1, L400A/F405I); test: CD thermal stabilization; format: binding
T2 sequence (Q8VEF1 334-562 L400A/F405I): T1 sequence (Q8VEF1 334-562 L400A) with F72I

SMILES: O=C1[C@H](CC[C@H](O)c2ccc(F)cc2)[C@@H](c2ccc(O)cc2)N1c1ccc(F)cc1 [EZ, ezetimibe]
- CD thermal stabilization (Aster-A [1]): but the stability was increased by EZ
- CD thermal stabilization (Aster-A [2]): The Aster-A mutant L400A_F405I, as well as the single mutant L400A, reduced Aster-A thermal stability
